Measured values: PMC6628374, “Preparation and Identification of Novel Antihypertensive Peptides from the In Vitro Gastrointestinal Digestion of Marine Cobia Skin Hydrolysates” (Nutrients, 2019)
Read-outs that look alike come from different tables or passages of the source. Peptide text beside a SMILES is read from it.

Key:
[1] = target: angiotensin I-converting enzyme (rabbit lung ACE) (rabbit) (UniProt P12822)
[2] = target: angiotensin I-converting enzyme (rabbit lung ACE) (rabbit) (UniProt P12822); remark: listed apart in the source
Rabbit lung ACE = target: T1, Rabbit lung ACE (Oryctolagus cuniculus, UniProt P12822); test: ACE inhibition assay (RP-HPLC, HHL substrate); type: biochemical; details: for Inhibition (%): at the peak's own peptide concentration; for IC50: identified peptides of peaks E6 to E9
T1 construct: Enzymes including pepsin, pancreatin and rabbit lung ACE were purchased from Sigma Chemical Co; purchased Sigma Chemical Co. (St. Louis, MO, USA); host or cells: rabbit lung (tissue-derived)
T1 sequence (P12822 34-1310): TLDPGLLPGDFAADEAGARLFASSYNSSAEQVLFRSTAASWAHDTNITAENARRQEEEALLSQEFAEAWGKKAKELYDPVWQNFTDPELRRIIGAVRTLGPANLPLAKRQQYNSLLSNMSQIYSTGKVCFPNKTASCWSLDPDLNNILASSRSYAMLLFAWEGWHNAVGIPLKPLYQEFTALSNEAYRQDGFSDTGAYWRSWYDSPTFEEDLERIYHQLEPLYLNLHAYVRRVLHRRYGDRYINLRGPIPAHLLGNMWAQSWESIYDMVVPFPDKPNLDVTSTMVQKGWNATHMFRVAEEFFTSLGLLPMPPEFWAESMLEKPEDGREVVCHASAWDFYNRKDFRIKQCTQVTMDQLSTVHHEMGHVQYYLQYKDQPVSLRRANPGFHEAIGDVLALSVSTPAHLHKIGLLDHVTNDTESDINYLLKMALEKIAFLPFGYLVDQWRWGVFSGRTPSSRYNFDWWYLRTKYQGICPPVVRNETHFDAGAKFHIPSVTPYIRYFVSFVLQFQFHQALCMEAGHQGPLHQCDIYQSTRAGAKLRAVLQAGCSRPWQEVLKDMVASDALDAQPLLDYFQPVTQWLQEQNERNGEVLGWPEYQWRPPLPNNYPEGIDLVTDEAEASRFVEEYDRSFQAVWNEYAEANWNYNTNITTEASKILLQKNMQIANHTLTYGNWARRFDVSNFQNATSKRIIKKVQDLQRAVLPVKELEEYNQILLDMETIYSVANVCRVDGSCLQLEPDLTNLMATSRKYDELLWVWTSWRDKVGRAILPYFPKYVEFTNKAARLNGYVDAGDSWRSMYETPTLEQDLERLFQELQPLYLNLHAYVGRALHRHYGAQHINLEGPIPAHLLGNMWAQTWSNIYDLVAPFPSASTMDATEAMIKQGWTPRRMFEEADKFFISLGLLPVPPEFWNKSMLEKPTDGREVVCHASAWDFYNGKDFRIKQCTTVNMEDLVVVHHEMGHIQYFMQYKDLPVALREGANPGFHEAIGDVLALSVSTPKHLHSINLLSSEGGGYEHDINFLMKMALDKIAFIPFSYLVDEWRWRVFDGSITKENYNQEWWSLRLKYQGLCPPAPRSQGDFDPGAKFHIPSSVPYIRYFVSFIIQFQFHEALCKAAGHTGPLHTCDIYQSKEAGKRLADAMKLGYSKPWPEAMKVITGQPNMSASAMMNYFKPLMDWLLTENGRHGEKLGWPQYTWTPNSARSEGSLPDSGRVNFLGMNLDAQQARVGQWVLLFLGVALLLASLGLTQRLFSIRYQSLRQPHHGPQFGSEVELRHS
Experimental: RP-HPLC was used to measure ACE inhibition by means of a method devised by Cushman and Cheung. The sample consisted of 15 mM HHL in Na-borate buffer (100 mM, pH 8.3) plus NaCl (300 mM). […] Equal volumes (75 μL) of the ACE solution and samples passed through a 5-kDa MWCO membrane were then incubated for 10 min at 37 °C. […] of the solution of HHL was then added and incubation was continued for a further 30 min. 1.0 N HCl (250 μL) was used to stop the reaction and 10 μL was injected into a Luna C18 column. […] Finally, inhibition activity was calculated using the following formula:Inhibition activity (%) = ((Ec - Es) / (Ec - Eb)) × 100where Ec is the absorbance when the buffer was added as control, Es is the absorbance when the sample was added to the reaction mixture (sample), and Eb is the absorbance when the stop solution was added before the reaction occurred (blank). […] The data used in this study were all averages of three readings or standard deviations (SDs).

ACE = details: cited from earlier work
[3] = set-up: method as in doi:10.1016/j.idairyj.2015.09.004; details: human volunteers, 100 mg oral, after 30 min; cited from earlier work
ACE activity in plasma = test system: ACE activity in plasma; set-up: method as in doi:10.1016/j.idairyj.2015.09.004; details: human volunteers, 100 mg oral, at 1.5 h; cited from earlier work
[4] = RP-HPLC peaks of fraction E from PX-5G
[5] = equivalent of the μM value, read-out: IC50 (mg/mL) (converted)
[6] = peptides from Pacific cod skin gelatin hydrolysates (<1 kDa)
[7] = dipeptides from salmon muscle hydrolysate

Question: For Ala-Trp-Trp (peptide), which Inhibition (%) of ACE enzyme activity by peak E7 at 0.058 mg/mL peptide [1] is on record?
Answer: 81.1%

Question: What about the IC50 of inhibition of ACE enzyme activity (hippuric acid released from HHL, RP-HPLC, 37 °C, pH 8.3) [2] of the same molecule?
Answer: 9.4 μM

Question: Which “Inhibition (%)” value (Rabbit lung ACE; [4]) does the source give for `CC[C@H](C)[C@H](N)C(=O)N[C@@H](Cc1c[nH]c2ccccc12)C(=O)N[C@@H](Cc1c[nH]c2ccccc12)C(=O)O` [Peak E8, Ile-Trp-Trp] (H-Ile-Trp-Trp-OH) here?
Answer: 93.4%

Question: What about the IC50 (Rabbit lung ACE; [5]) of the same molecule?
Answer: 0.516 µM

Question: And the IC50 (Rabbit lung ACE; read-out: IC50)?
Answer: 0.51 ± 0.1 µM

Question: With Ile-Trp-Trp (peptide) as the molecule, how does the Inhibition (%) of ACE enzyme activity by peak E8 at 0.028 mg/mL peptide [1] read?
Answer: 93.4%

Question: What about the IC50 of inhibition of ACE enzyme activity (hippuric acid released from HHL, RP-HPLC, 37 °C, pH 8.3) [2] of the same molecule?
Answer: 0.51 μM

Question: For “Val-Arg-Tyr-Leu (VRYL; printed: Val-Arg-Tyr-Leu)”, which “IC50 before hydrolysis with gastrointestinal proteases” value (ACE; peptide from Manchego cheese) is on record?
Answer: 9 µg/mL

Question: With G–R-G-S–V-P–A–Hyp–G-P as the molecule, how does the IC50 (ACE; peptide from squid skin collagen hydrolysate fraction <1 kDa) read?
Answer: 47.8 µM

Question: Which IC50 (ACE; [6]) does the source give for G-A-S-S-G-M-P-G (GASSGMPG) here?
Answer: 6.9 µM

Question: With Trp-Leu (peptide) as the molecule, how does the Inhibition (%) of ACE enzyme activity by peak E9 at 0.014 mg/mL peptide [1] read?
Answer: 42.3%

Question: What about the IC50 of inhibition of ACE enzyme activity (hippuric acid released from HHL, RP-HPLC, 37 °C, pH 8.3) [2] of the same molecule?
Answer: 26.8 μM

Question: What does the source list for `C[C@H](NC(=O)[C@H](C)NC(=O)[C@@H](N)Cc1c[nH]c2ccccc12)C(=O)O` [Peak E6, Trp-Ala-Ala] (H-Trp-Ala-Ala-OH)?
Answer: Inhibition (%) (Rabbit lung ACE; [4]): 41.9%; IC50 (Rabbit lung ACE; [5]): 119 µM; IC50 (Rabbit lung ACE; read-out: IC50): 118 ± 2.8 µM

Question: Which IC50 (ACE; [6]) does the source give for L-A-Y-A here?
Answer: 14.5 µM

Question: For Trp-Ala-Ala (peptide), which Inhibition (%) of ACE enzyme activity by peak E6 at 0.048 mg/mL peptide [1] is on record?
Answer: 41.9%

Question: What about the IC50 of inhibition of ACE enzyme activity (hippuric acid released from HHL, RP-HPLC, 37 °C, pH 8.3) [2] of the same molecule?
Answer: 118 μM

Question: Which IC50 (ACE; [7]) does the source give for Met-Trp here?
Answer: 9.8 µM

Question: For Trp-Met, which IC50 (ACE; [7]) is on record?
Answer: 98.6 µM

Question: Which results are given for `C[C@H](N)C(=O)N[C@@H](Cc1c[nH]c2ccccc12)C(=O)N[C@@H](Cc1c[nH]c2ccccc12)C(=O)O` [Peak E7, Ala-Trp-Trp] (H-Ala-Trp-Trp-OH)?
Answer: Inhibition (%) (Rabbit lung ACE; [4]): 81.1%; IC50 (Rabbit lung ACE; [5]): 9.4 µM; IC50 (Rabbit lung ACE; read-out: IC50): 9.4 ± 0.6 µM

Question: For Leu-Trp, which ACE-inhibition mode (ACE) is on record?
Answer: noncompetitive inhibitors

Question: What does the source list for `CC(C)C[C@H](NC(=O)[C@@H](N)Cc1c[nH]c2ccccc12)C(=O)O` [Peak E9, Trp-Leu] (H-Trp-Leu-OH; N-terminus and C-terminus assumed)?
Answer: IER (inhibitory efficiency ratio) (Rabbit lung ACE; [4]): 3021.4 %/mg/mL; Inhibition (%) (Rabbit lung ACE; [4]): 42.3%; IC50 (Rabbit lung ACE; [5]): 26.8 µM; IC50 (Rabbit lung ACE; read-out: IC50): 26.8 ± 0.9 µM; ACE-inhibition mode (ACE): noncompetitive inhibitors; IC50 (ACE): 29.9 to 34.1 µM; maximum plasma concentration [3]: 29 to 36 pmol/mL; decrease of ACE activity in plasma (ACE activity in plasma): 16–22%
